Experimental findings from US12528769B2, “Synthesis of (2S,5R)-5-(2-chlorophenyl)-1-(2′-methoxy-[1,1′-biphenyl]-4-carbonyl)pyrrolidine-2-carboxylic acid” (EPICS THERAPEUTICS, priority 2020, dated 2026) are described below.

Read-outs that look alike come from different tables or passages of the source. Where only a bound is given, the exact number is not on record here.

Common to all, as to type: physicochemical
One data set can be described thus: Solubility in water. The conditions noted are these: for Native pH: 150 mg material in 1.0 mL deionized water, before pH adjustment; for solubility: deionized water, pH 7.4, aqueous buffer, thermodynamic from solid. On the procedure:
Method. The solubility in water was studied as described hereafter. 150 mg of the studied materials of (1), (1·Na) and (1·K) were transferred to a glass vial and 1.0 mL of deionized water was added, vortex and ultrasonic treatment cycles were applied during 5 min. Then pH was checked and adjusted to pH=9.0-10.0 range by accurate addition of 2M aqueous solution of NaOH for (1) and (1·Na) or KOH for (1·K). Then several cycles of vortex and ultrasonic treatment were applied for 30 min. pH was adjusted to pH=7.2-7.6 range by careful addition of NaOH or KOH or HCl aqueous solutions. Vortex and ultrasonic treatment cycles and pH adjustments were repeated until pH stabilized at pH=7.2-7.6 range. Then the suspensions were centrifuged at 3000 rpm and supernatant was filtered thought membrane filter. The resulting filtrate was diluted in 1000 folds with DMSO and analyzed by HPLC against standard solution with known concentration.

Data set [1] is described as follows: Forced degradation: thermal stability. The conditions noted are these: for Thermal stability, purity (%): solids at 115° C.; for Decrease of purity in the thermal stability assay: after 3 weeks. How it is done: For thermal stability powders were exposed to elevated temperature in capped glass vials kept inside thermostatic oven at 115° C.
(§1) Samples were analyzed by RP-HPLC and Chiral HPLC at TO, after 1 week and after 3 weeks. For RP-HPLC analysis samples were analyzed directly from solutions used for stability study. For Chiral HPLC, aliquots were evaporated in Genevac at 40° C. and re-dissolved in the mobile phase.

Data set [2] can be described thus: Forced degradation: photolytic stability. As to conditions: for Photolytic stability, purity (%): solutions 1 mg/mL in ACN/water (3:7), cool daylight lamp, around 22° C.; for Initial purities, purity (%): T0, baseline of the photolytic and thermal stability studies; for Decrease of purity in the photolytic stability assay: after 3 weeks. On the procedure:
For photolytic stability, cool daylight lamp OSRAM DULUX TWIST 23W 1600 lm 6500 K located in 20 cm distance from the studied samples was used. Samples were prepared at 1 mg/mL concentration in ACN/water (3:7 v/v) solution and exposed to light in capped glass vials placed on reflective surface at ambient temperature (around 22° C.).
as §1

[3] abbreviates: water, pH adjusted to 7.2-7.6, filtrate analysed by HPLC, read-out: Maximal solubility pH 7.4.

Take `COc1ccccc1-c1ccc(C(=O)N2[C@@H](c3ccccc3Cl)CC[C@H]2C(=O)[O-])cc1.[Na+]` [1·Na, sodium (2S,5R)-5-(2-chlorophenyl)-1-(2′-methoxy-[1,1′-biphenyl]-4-carbonyl)pyrrolidine-2-carboxylate]: the “Native pH” value in “Solubility in water” was found to be 7. The solubility was 129 mg/mL in “Solubility in water” (setting [3]) and around 130 mg/mL in the data set “Solubility in water” (water, read-out: Aqueous solubility (confirmed)). Also, the “Increase of aqueous solubility compared with the free acid (1)” value in “Solubility in water” (water, pH 7.4) turned out to be 2 fold. In addition, the “Increase of aqueous solubility compared with the potassium salt (1·K)” value in the data set “Solubility in water” (water, pH 7.4) is listed as 1.5 fold. The “Thermal stability, purity (%)” value amounted to 99.1% in data set [1] (1 week) and 98.9% in data set [1] (3 weeks). Moreover, in data set [1], the “Decrease of purity in the thermal stability assay” value was 0.4%. Besides, the “Photolytic stability, purity (%)” value worked out at 98.5% in data set [2] (1 week) and 97.0% in data set [2] (3 weeks). In addition, the “Initial purities, purity (%)” value in data set [2] was 99.3%. Also, the “Decrease of purity in the photolytic stability assay” value in data set [2] was determined as 2.3%.
Take `COc1ccccc1-c1ccc(C(=O)N2[C@@H](c3ccccc3Cl)CC[C@H]2C(=O)[O-])cc1.[K+]` [1·K]: in the data set “Solubility in water”, the “Native pH” value turned out to be 7. Besides, the “Maximal solubility pH 7.4” value in the data set “Solubility in water” (water, pH adjusted to 7.2-7.6, filtrate analysed by HPLC) was 87 mg/mL.
`COc1ccccc1-c1ccc(C(=O)N2[C@@H](c3ccccc3Cl)CC[C@H]2C(=O)O)cc1` [compound 1, (2S,5R)-5-(2-chlorophenyl)-1-(2′-methoxy-[1,1′-biphenyl]-4-carbonyl)pyrrolidine-2-carboxylic acid]: in the data set “Solubility in water”, the “Native pH” value is listed as 5. Also, the “Solubility in water (in words)” value in “Solubility in water” (acid form) is reported as “poorly soluble in water”. In addition, the solubility in “Solubility in water” (setting [3]) was above 64 mg/mL. Besides, the “Thermal stability, purity (%)” value was determined as 88.5% in data set [1] (1 week) and 71.4% in data set [1] (3 weeks). The “Decrease of purity in the thermal stability assay” value in data set [1] is 28.1%. Moreover, the “Photolytic stability, purity (%)” value is given as 96.7% in data set [2] (1 week) and 75.9% in data set [2] (3 weeks). For the same compound, the “Initial purities, purity (%)” value in data set [2] stood at 99.3%. Moreover, the “Decrease of purity in the photolytic stability assay” value in data set [2] was 23.6%.
